Results published in patent US8933233B2, “1,3,4-oxadiazole and 1,3,4-thiadiazole β-lactamase inhibitors” (priority 2012, dated 2015).
Counter-ions that a name gives are not always drawn.

How the values were obtained:
[1] = tested on: bacterial strains that express the class D cephalosporinase OXA-15; experiment: Synergy MIC / standard BLI potentiation MIC assay, strains expressing OXA-15; format: cell-based, E. coli; conditions: in presence of a β-lactam; comparator Avibactam (CCC)
In short: (§1)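 Broth microdilution in CAMHB per CLSI M07-A9, ~10^5 CFU/mL inoculum, 18–20 h at 37 °C with aeration; engineered E. coli kept with 25 μg/mL tetracycline. β-lactam 2-fold from 128 to 0.13 μg/mL with BLI fixed at 4 μg/mL, or BLI serially diluted with β-lactam fixed; MIC is lowest concentration without visible turbidity.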

[2] = tested on: bacterial strains that express KPC β-lactamases; experiment: Synergy MIC / standard BLI potentiation MIC assay, strains expressing KPC β-lactamases; format: cell-based, isogenic E. coli and clinical isolates; conditions: more active for at least one KPC strain and/or better spectrum; comparator Avibactam
In short: as §1

Row | Structure (SMILES) | activity against bacterial strains that express OXA-15, compared with Avibactam [1] | activity and/or spectrum of activity against bacterial strains that express KPC β-lactamases, compared with Avibactam [2]
1 | N[C@@H]1CC[C@H](c2nnc([C@@H]3CC[C@@H]4CN3C(=O)N4OS(=O)(=O)O)o2)C1 [Compound 729, (2S,5R)-2-(5-((1S,3R)-3-aminocyclopentyl)-1,3,4-oxadiazol-2-yl)-7-oxo-1,6-diazabicyclo[3.2.1]octan-6-yl hydrogen sulfate] | more active than Avibactam | more active than Avibactam
2 | N=C(N)NC[C@@H](O)c1nnc([C@@H]2CC[C@@H]3CN2C(=O)N3OS(=O)(=O)O)o1 [Compound 731, (2S,5R)-2-(5-((R)-2-guanidino-1-hydroxyethyl)-1,3,4-oxadiazol-2-yl)-7-oxo-1,6-diazabicyclo[3.2.1]octan-6-yl hydrogen sulfate] | more active than Avibactam | more active than Avibactam
3 | O=C1N2C[C@@H](CC[C@H]2c2nnc(C3CC4(CNC4)C3)o2)N1OS(=O)(=O)O [Compound 750, (2S,5R)-2-(5-(2-azaspiro[3.3]heptan-6-yl)-1,3,4-oxadiazol-2-yl)-7-oxo-1,6-diazabicyclo[3.2.1]octan-6-yl hydrogen sulfate] | more active than Avibactam | more active than Avibactam
4 | N=C(N)NCC1(c2nnc([C@@H]3CC[C@@H]4CN3C(=O)N4OS(=O)(=O)O)o2)CC1 [Compound 723, (2S,5R)-2-(5-(1-(guanidinomethyl)cyclopropyl)-1,3,4-oxadiazol-2-yl)-7-oxo-1,6-diazabicyclo[3.2.1]octan-6-yl hydrogen sulfate] | more active than Avibactam | more active than Avibactam
5 | N[C@H]1CC[C@@H](c2nnc([C@@H]3CC[C@@H]4CN3C(=O)N4OS(=O)(=O)O)o2)C1 [Compound 768, (2S,5R)-2-(5-((1R,3S)-3-aminocyclopentyl)-1,3,4-oxadiazol-2-yl)-7-oxo-1,6-diazabicyclo[3.2.1]octan-6-yl hydrogen sulfate] | more active than Avibactam | more active than Avibactam
6 | N=C(N)N[C@H]1C[C@@H](c2nnc([C@@H]3CC[C@@H]4CN3C(=O)N4OS(=O)(=O)O)o2)C1 [Compound 749, 2S,5R)-2-(5-((1s,3R)-3-guanidinocyclobutyl)-1,3,4-oxadiazol-2-yl)-7-oxo-1,6-diazabicyclo[3.2.1]octan-6-yl hydrogen sulfate] | more active than Avibactam | more active than Avibactam
7 | NCCCCc1nnc([C@@H]2CC[C@@H]3CN2C(=O)N3OS(=O)(=O)O)o1 [Compound 735, (2S,5R)-2-(5-(4-aminobutyl)-1,3,4-oxadiazol-2-yl)-7-oxo-1,6-diazabicyclo[3.2.1]octan-6-yl hydrogen sulfate] | more active than Avibactam | more active than Avibactam
8 | N[C@H]1C[C@H](Cc2nnc([C@@H]3CC[C@@H]4CN3C(=O)N4OS(=O)(=O)O)o2)C1 [Compound 751, (2S,5R)-2-(5-(((1r,3S)-3-aminocyclobutyl)methyl)-1,3,4-oxadiazol-2-yl)-7-oxo-1,6-diazabicyclo[3.2.1]octan-6-yl hydrogen sulfate] | more active than Avibactam | more active than Avibactam
9 | NCCc1nnc([C@@H]2CC[C@@H]3CN2C(=O)N3OS(=O)(=O)O)o1 [Compound 703, (2S,5R)-2-(5-(2-aminoethyl)-1,3,4-oxadiazol-2-yl)-7-oxo-1,6-diazabicyclo[3.2.1]octan-6-yl hydrogen sulfate] | more active than Avibactam | more active than Avibactam
10 | O=C1N2C[C@@H](CC[C@H]2c2nnc(C3CCNCC3)o2)N1OS(=O)(=O)O [Compound 711, (2S,5R)-7-oxo-2-(5-(piperidin-4-yl)-1,3,4-oxadiazol-2-yl)-1,6-diazabicyclo[3.2.1]octan-6-yl hydrogen sulfate] | more active than Avibactam | more active than Avibactam
11 | O=C1N2C[C@@H](CC[C@H]2c2nnc(CCNC3CNC3)o2)N1OS(=O)(=O)O [Compound 745, (2S,5R)-2-(5-(2-(azetidin-3-ylamino)ethyl)-1,3,4-oxadiazol-2-yl)-7-oxo-1,6-diazabicyclo[3.2.1]octan-6-yl hydrogen sulfate] | more active than Avibactam | more active than Avibactam
12 | N=C(N)N[C@H]1C[C@@H](c2nnc([C@@H]3CC[C@@H]4CN3C(=O)N4OS(=O)(=O)O)s2)C1 [Compound 784, (2S,5R)-2-(5-((1s,3R)-3-guanidinocyclobutyl)-1,3,4-thiadiazol-2-yl)-7-oxo-1,6-diazabicyclo[3.2.1]octan-6-yl hydrogen sulfate] | more active than Avibactam | more active than Avibactam
13 | NCCCc1nnc([C@@H]2CC[C@@H]3CN2C(=O)N3OS(=O)(=O)O)o1 [Compound 720, (2S,5R)-2-(5-(3-aminopropyl)-1,3,4-oxadiazol-2-yl)-7-oxo-1,6-diazabicyclo[3.2.1]octan-6-yl hydrogen sulfate] | more active than Avibactam | more active than Avibactam
14 | N[C@H]1CN[C@@H](c2nnc([C@@H]3CC[C@@H]4CN3C(=O)N4OS(=O)(=O)O)o2)C1 [Compound 761, (2S,5R)-2-(5-((2R,4R)-4-aminopyrrolidin-2-yl)-1,3,4-oxadiazol-2-yl)-7-oxo-1,6-diazabicyclo[3.2.1]octan-6-yl hydrogen sulfate] | more active than Avibactam | more active than Avibactam
15 | N=C(N)NC[C@H](O)c1nnc([C@@H]2CC[C@@H]3CN2C(=O)N3OS(=O)(=O)O)o1 [Compound 732, (2S,5R)-2-(5-((S)-2-guanidino-1-hydroxyethyl)-1,3,4-oxadiazol-2-yl)-7-oxo-1,6-diazabicyclo[3.2.1]octan-6-yl hydrogen sulfate] | more active than Avibactam | more active than Avibactam
16 | O=C1N2C[C@@H](CC[C@H]2c2nnc(C3CCNC3)o2)N1OS(=O)(=O)O (stereo partly drawn) [Compound 710, (2S,5R)-7-oxo-2-(5-(pyrrolidin-3-yl)-1,3,4-oxadiazol-2-yl)-1,6-diazabicyclo[3.2.1]octan-6-yl hydrogen sulfate] | more active than Avibactam | more active than Avibactam
17 | N[C@H]1C[C@@H](Cc2nnc([C@@H]3CC[C@@H]4CN3C(=O)N4OS(=O)(=O)O)o2)C1 [Compound 728, (2S,5R)-2-(5-(((1s,3R)-3-aminocyclobutyl)methyl)-1,3,4-oxadiazol-2-yl)-7-oxo-1,6-diazabicyclo[3.2.1]octan-6-yl hydrogen sulfate] | more active than Avibactam | more active than Avibactam
18 | O=C1N2C[C@@H](CC[C@H]2c2nnc(CCCC3CNC3)o2)N1OS(=O)(=O)O [Compound 743, (2S,5R)-2-(5-(3-(azetidin-3-yl)propyl)-1,3,4-oxadiazol-2-yl)-7-oxo-1,6-diazabicyclo[3.2.1]octan-6-yl hydrogen sulfate] | more active than Avibactam | more active than Avibactam
19 | O=C1N2C[C@@H](CC[C@H]2c2nnc(CNC3CNC3)o2)N1OS(=O)(=O)O [Compound 726, (2S,5R)-2-(5-((azetidin-3-ylamino)methyl)-1,3,4-oxadiazol-2-yl)-7-oxo-1,6-diazabicyclo[3.2.1]octan-6-yl hydrogen sulfate] | more active than Avibactam | more active than Avibactam
20 | C[n+]1ccc(-c2nnc([C@@H]3CC[C@@H]4CN3C(=O)N4OS(=O)(=O)[O-])o2)cc1 [Compound 782, (2S,5R)-2-(5-(1-methylpyridin-1-ium-4-yl)-1,3,4-oxadiazol-2-yl)-7-oxo-1,6-diazabicyclo[3.2.1]octan-6-yl sulfate] | more active than Avibactam | more active than Avibactam
21 | O=C1N2C[C@@H](CC[C@H]2c2nnc(C3CNC3)o2)N1OS(=O)(=O)O [Compound 708, (2S,5R)-2-(5-(azetidin-3-yl)-1,3,4-oxadiazol-2-yl)-7-oxo-1,6-diazabicyclo[3.2.1]octan-6-yl hydrogen sulfate] | more active than Avibactam | more active than Avibactam
